The subject of the assay is B6C3F1 mice, ip Sarcoma M5076, median survival T/C. Description: NCI In Vivo Anticancer Drug Screen. Data for tumor model Sarcoma M5076 (intraperitoneal) in B6C3F1 mice. Conditions: endpoint: median survival time, schedule: Q04DX004 (ip), higher = longer survival. Put shortly: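 Transplantable tumour in mice; compound-treated vs vehicle-treated groups. Read-out: survival. Value = treated/control ratio.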

[1] abbreviates: dose: 50.0 mg/kg/injection, vehicle: saline with Tween-80.
Where [2] appears, read: dose: 100.0 mg/kg/injection, vehicle: saline with Tween-80.
Where [3] appears, read: dose: 200.0 mg/kg/injection, vehicle: saline with Tween-80.
Where [4] appears, read: dose: 400.0 mg/kg/injection, vehicle: saline with Tween-80.
[5] abbreviates: dose: 50.0 mg/kg/injection, vehicle: Klucel (hydroxypropylcellulose) (HPC).
Setting [6] is: dose: 100.0 mg/kg/injection, vehicle: Klucel (hydroxypropylcellulose) (HPC).
[7] abbreviates: dose: 200.0 mg/kg/injection, vehicle: Klucel (hydroxypropylcellulose) (HPC).
Setting [8] is: dose: 25.0 mg/kg/injection, vehicle: saline with Tween-80.
[9] abbreviates: dose: 12.5 mg/kg/injection, vehicle: saline with Tween-80.

Several values for one entry are separate records, joined by “and”; a condition that tells them apart may be missing. Equal entries are not always repeated. Inconclusive results and toxic doses are left out.

With `Cc1[nH]c(=O)[nH]c(=O)c1C=O`, the T/C by setting is: under setting [1], 100 % of control; under setting [2], 101 % of control; under setting [3], 98 % of control; under setting [4], 96 % of control.

For `O=c1/c(=C\C=C\c2ccccc2)sc2n1CCN=2`, the T/C is 95 % of control under setting [1], 99 % of control under setting [2], 91 % of control under setting [3] and 99 % of control under setting [4].

With `CC1=C(/C=C/C(C)=C/C=C/C(C)=C/C=O)C(C)(C)CCC1`, the T/C was 104 % of control (dose: 75.0 mg/kg/injection, vehicle: saline + alcohol) and 96 % of control (dose: 150.0 mg/kg/injection, vehicle: saline + alcohol).

With `c1ccc2c(c1)-c1ccccc1C1NC21` (configuration not stated), the T/C is 93 % of control (dose: 18.75 mg/kg/injection, vehicle: saline with Tween-80); 98 % of control (dose: 37.5 mg/kg/injection, vehicle: saline with Tween-80); 94 % of control (dose: 75.0 mg/kg/injection, vehicle: saline with Tween-80); 96 % of control (dose: 150.0 mg/kg/injection, vehicle: saline with Tween-80); 102 % of control (dose: 300.0 mg/kg/injection, vehicle: saline with Tween-80).

On to `O=CC(O)C(O)C(O)C(O)CO` (configuration not stated), for which the T/C (dose: 75.0 mg/kg/injection, vehicle: saline) is 93 % of control; the T/C (dose: 150.0 mg/kg/injection, vehicle: saline) was 96 % of control; the T/C (dose: 300.0 mg/kg/injection, vehicle: saline) was 96 % of control; the T/C (dose: 600.0 mg/kg/injection, vehicle: saline) was 98 % of control; the T/C (dose: 1200.0 mg/kg/injection, vehicle: saline) is 93 % of control.

In the case of `CSC1SCC2C(=O)N(C)C(C(C)C)C(=O)OCC(NC(=O)c3cnc4ccccc4n3)C(=O)NC(C)C(=O)N(C)C1C(=O)N(C)C(C(C)C)C(=O)OCC(NC(=O)c1cnc3ccccc3n1)C(=O)NC(C)C(=O)N2C` (configuration not stated), the T/C reads like this: (dose: 12.5 micrograms/kg/injection, vehicle: saline with Tween-80) 100 % of control; (dose: 25.0 micrograms/kg/injection, vehicle: saline with Tween-80) 104 % of control; (dose: 50.0 micrograms/kg/injection, vehicle: saline with Tween-80) 110 % of control and 111 % of control; (dose: 100.0 micrograms/kg/injection, vehicle: saline with Tween-80) 114 % of control; (dose: 200.0 micrograms/kg/injection, vehicle: saline with Tween-80) 123 % of control.

For the molecule `NC(=S)N/N=C/c1cc(=O)c2cc(Cl)ccc2o1`, the T/C (dose: 75.0 mg/kg/injection, vehicle: DMSO) was 92 % of control.

Turning to `O=C(Nc1ccc(Cl)c(Cl)c1)C1C(=O)C(=O)N(c2ccc(Cl)c(Cl)c2)C1=O` (configuration not stated), the T/C under setting [5] is 91 % of control, the T/C under setting [6] is 92 % of control and the T/C under setting [7] is 89 % of control.

In the case of `N=C(N)c1ccc(N=NNc2ccc(C(=N)N)cc2)cc1`, the T/C was 96 % of control under setting [8] and 97 % of control under setting [1].

For the molecule `NC(=O)c1ccc[n+](Cc2c(Cl)cccc2Cl)c1`, the T/C is, setting by setting: (dose: 12.5 mg/kg/injection, vehicle: saline) 100 % of control; (dose: 25.0 mg/kg/injection, vehicle: saline) 99 % of control; (dose: 50.0 mg/kg/injection, vehicle: saline) 100 % of control; (dose: 100.0 mg/kg/injection, vehicle: saline) 96 % of control.

Turning to `CC[C@](C)(O)C(=O)O[C@H]1C(=O)O[C@@H]2C[C@H]3C(C)=CC(=O)[C@@H](O)[C@]3(C)[C@H]3[C@@]4(O)OC[C@]32[C@@H]1[C@@H](C)[C@H]4O`, the T/C is, setting by setting: (dose: 0.03 mg/kg/injection, vehicle: saline) 102 % of control; (dose: 0.06 mg/kg/injection, vehicle: saline) 117 % of control; (dose: 0.25 mg/kg/injection, vehicle: saline) 100 % of control.

Turning to `CCCCNP1(NCCCC)=NP(NCCCC)(NCCCC)=NP(NCCCC)(NCCCC)=NP(NCCCC)(NCCCC)=N1`, the T/C is, setting by setting: (dose: 3.13 mg/kg/injection, vehicle: saline with Tween-80) 96 % of control; (dose: 6.25 mg/kg/injection, vehicle: saline with Tween-80) 104 % of control; under setting [9], 102 % of control; under setting [8], 96 % of control; under setting [1], 97 % of control.

Turning to `COc1cc(NCc2ccc3nc(N)nc(N)c3c2C)cc(OC)c1OC`, the T/C was 117 % of control and 122 % of control (dose: 7.5 mg/kg/injection, vehicle: Klucel (hydroxypropylcellulose) (HPC)); 152 % of control and 154 % of control (dose: 30.0 mg/kg/injection, vehicle: Klucel (hydroxypropylcellulose) (HPC)); 162 % of control and 172 % of control and 179 % of control (dose: 60.0 mg/kg/injection, vehicle: Klucel (hydroxypropylcellulose) (HPC)); 167 % of control (dose: 120.0 mg/kg/injection, vehicle: Klucel (hydroxypropylcellulose) (HPC)).

Take `Cn1[nH]c2[nH]c(=S)sc(=S)c2c1=O`: the T/C reads like this: (dose: 25.0 mg/kg/injection, vehicle: Klucel (hydroxypropylcellulose) (HPC)) 100 % of control; under setting [5], 94 % of control; under setting [6], 95 % of control; under setting [7], 94 % of control; (dose: 400.0 mg/kg/injection, vehicle: Klucel (hydroxypropylcellulose) (HPC)) 95 % of control.

Consider `COc1ccc2c(c1)n([O-])c1ccccc1[n+]2=O`, for which the T/C was 115 % of control under setting [8], 117 % of control under setting [1] and 121 % of control under setting [2].

As for `O=C1C2CC(Cl)C(SSC3CC4C(=O)N(SC(Cl)(Cl)C(Cl)Cl)C(=O)C4CC3Cl)CC2C(=O)N1SC(Cl)(Cl)C(Cl)Cl` (configuration not stated), the T/C reads like this: under setting [9], 97 % of control; under setting [8], 95 % of control; under setting [1], 98 % of control and 105 % of control; under setting [2], 90 % of control and 97 % of control; under setting [3], 102 % of control and 117 % of control; under setting [4], 110 % of control. For the same molecule, under “dose: 800.0 mg/kg/injection, vehicle: saline with Tween-80”, the T/C was 109 % of control.

These data come from PubChem BioAssay AID292 (DTP/NCI, 2004).
